# Experiment: Ready-to-use formulation stability at 25° C./60% RH, 5 mg/mL (R,R)-pyrodach-2 in 10 mM Potassium Phosphate Buffer at pH 7.4, 10 mL vials
# Format: physicochemical
# Protocol: A scalable and commercially viable process for the manufacture of a ready-to-use formulation of (R,R)-pyrodach-2 in 10 mM buffer adjusted to a pH of 7.0-7.5 comprises the steps of: a) preparing a 10 mM aqueous solution of buffer; b) adding sufficient hydroxide base to effect neutralization of the added (R,R)-pyrodach-2 to reach a pH of about 7; c) adding (R,R)-pyrodach-2 and allowing it to dissolve; d) if necessary adding additional hydroxide to adjust the pH into a range of about 7.0-7.5; and e) filtering the solution under sterile conditions, filling the solution into glass vials, and covering it with a stopper and/or a cap. Stability data on two large batches of 5 mg/mL (R,R)-pyrodach-2 in 10 mM potassium phosphate buffer were generated. One such batch at pH=7.2 was evaluated at both 25° C./60% RH and refrigerated (2-8° C.) conditions, with data summarized in Table 4 and Table 5, respectively. […] Similar observations have been made for the ready-to-use liquid formulation at pH7.4, as illustrated in Table 6 and Table 7.
# • Transfer 4564.6 mg±0.5 mg of potassium phosphate dibasic, trihydrate to a 2-L volumetric flask. • Fill flask to approximately 75% volume with water, swirl as needed to dissolve all solids. • Volumetrically transfer 32.0 mL of 1N KOH to flask. • Dilute flask to volume with water and mix well. • Record pH of final solution. This is the diluent. • Transfer 7653.1 mg±0.5 mg of (R,R)-pyrodach-2 to a compounding vessel. • Transfer 1500 mL of the diluent to the vessel and stir to dissolve solids. • Record pH of final solution. • Pass entire solution through a 0.22 μm sterile filter membrane into a sterile collection vessel. • Calculate (R,R)-pyrodach-2 solution concentration
# To a […] glass beaker equipped with mechanical mixer was add 24645.5 g of sterile water for injection. With agitation 47.03 gm of dibasic potassium phosphate USP was added and the solids allowed to dissolve. To the stirred solution was added 253.8 gm of 1.00 N potassium hydroxide. Sterile water for injection USP (900.0 gm) was used as a rinse to facilitate both additions. With vigorous agitation, (R,R)-pyrodach-2 (201.87 gm) was slowly added and agitation continued until all of the solids dissolved. Sterile water for injection USP (900.0 gm) was used as a rinse to facilitate the addition. The pH was determined to be 6.7. A total of 85 mL of 1.00 N potassium hydroxide was added in 5.0 mL aliquots to adjust the pH to 7.3. The solution was sterile filtered through 0.22μ Millipore Millipack filter and aseptically filled, 10 ml top a vial in 10 mL in 10 cc Wheaton clear molded vails, stoppered with a 20 mm stopper and crimp seal capped.
compound,measurement,setting,value
"O=P1(O)OP(=O)(O)[O][Pt]2([NH][C@@H]3CCCC[C@H]3[NH]2)[O]1 (stereo partly drawn) [(R,R)-pyrodach-2, (R,R)-trans-1,2-cyclohexanediamine-(dihydrogenpyrophosphato)platinum(II)]",(DACH) Pt-diaquo (~RRT 0.3),1 Month,0.16%
same,(DACH) Pt-monoaquo (~RRT 0.7),1 Month,1.12%
same,Assay (Potency),1 Month,98.4%
same,PT-112 Dimer (~RRT 4.0),1 Month,0.35%
same,RRT 0.50,1 Month,0.07%
same,RRT 0.56,1 Month,0.15%
same,RRT 0.68,1 Month,0.21%
same,RRT 0.86,1 Month,0.06%
same,RRT 3.1-3.2,1 Month,0.56%
same,Total Related Substances,1 Month,3%
same,pH,1 Month,7.4
same,(DACH) Pt-diaquo (~RRT 0.3),3 Month,0.15%
same,(DACH) Pt-monoaquo (~RRT 0.7),3 Month,0.92%
same,Assay (Potency),3 Month,99.2%
same,PT-112 Dimer (~RRT 4.0),3 Month,0.33%
same,RRT 0.50,3 Month,0.11%
same,RRT 0.56,3 Month,0.20%
same,RRT 0.68,3 Month,0.11%
same,RRT 0.86,3 Month,0.05%
same,RRT 3.1-3.2,3 Month,0.77%
same,RRT 3.58,3 Month,0.14%
same,Total Related Substances,3 Month,3%
same,pH,3 Month,7.4
same,(DACH) Pt-diaquo (~RRT 0.3),6 Month,0.19%
same,(DACH) Pt-monoaquo (~RRT 0.7),6 Month,0.30%
same,Assay (Potency),6 Month,96.7%
same,PT-112 Dimer (~RRT 4.0),6 Month,0.36%
same,RRT 0.42,6 Month,0.06%
same,RRT 0.46,6 Month,0.09%
same,RRT 0.50,6 Month,0.31%
same,RRT 0.56,6 Month,0.09%
same,RRT 0.68,6 Month,0.16%
same,RRT 0.86,6 Month,0.07%
same,RRT 3.1-3.2,6 Month,0.86%
same,RRT 3.58,6 Month,0.37%
same,RRT 4.95,6 Month,0.06%
same,Total Related Substances,6 Month,3%
same,pH,6 Month,7.4
same,Particulate Matter (Light Obscuration),"6 Month, first value",87 particles particles per container
same,Particulate Matter (Light Obscuration),"6 Month, second value",3 particles particles per container
same,(DACH) Pt-diaquo (~RRT 0.3),9 Month,0.14%
same,(DACH) Pt-monoaquo (~RRT 0.7),9 Month,0.79%
same,Assay (Potency),9 Month,98.2%
same,PT-112 Dimer (~RRT 4.0),9 Month,0.34%
same,RRT 0.42,9 Month,0.08%
same,RRT 0.46,9 Month,0.08%
same,RRT 0.50,9 Month,0.39%
same,RRT 0.56,9 Month,0.11%
same,RRT 0.68,9 Month,0.11%
same,RRT 0.86,9 Month,0.06%
same,RRT 3.1-3.2,9 Month,0.84%
same,RRT 3.41,9 Month,0.08%
same,RRT 3.58,9 Month,0.65%
same,RRT 4.95,9 Month,0.21%
same,Total Related Substances,9 Month,4%
same,pH,9 Month,7.4
same,(DACH) Pt-diaquo (~RRT 0.3),12 Month,0.11%
same,(DACH) Pt-monoaquo (~RRT 0.7),12 Month,0.92%
same,Assay (Potency),12 Month,98.0%
same,PT-112 Dimer (~RRT 4.0),12 Month,0.30%
same,RRT 0.42,12 Month,0.10%
same,RRT 0.46,12 Month,0.07%
same,RRT 0.50,12 Month,0.38%
same,RRT 0.56,12 Month,0.19%
same,RRT 0.68,12 Month,0.11%
same,RRT 0.86,12 Month,0.05%
same,RRT 3.1-3.2,12 Month,0.82%
same,RRT 3.58,12 Month,0.70%
same,RRT 4.95,12 Month,0.34%
same,Total Related Substances,12 Month,4%
same,pH,12 Month,7.5
same,Particulate Matter (Light Obscuration),"12 Month, first value",118 particles per container
same,Particulate Matter (Light Obscuration),"12 Month, second value",7 particles particles per container
same,(DACH) Pt-diaquo (~RRT 0.3),15 Month,0.13%

# Reference: patent publication US11154529B2, “Phosphaplatin liquid formulations” (Phosplatin Therapeutics Inc., priority 2016, dated 2021)
